{"source": "ChEMBL document CHEMBL1201862", "about": "“PubChem BioAssay data set” (2004)", "key": {"[1]": {"biological_target": "T1, Sphingosine 1-phosphate receptor 2 (Homo sapiens, UniProt O95136)", "T1 sequence (O95136 whole entry)": "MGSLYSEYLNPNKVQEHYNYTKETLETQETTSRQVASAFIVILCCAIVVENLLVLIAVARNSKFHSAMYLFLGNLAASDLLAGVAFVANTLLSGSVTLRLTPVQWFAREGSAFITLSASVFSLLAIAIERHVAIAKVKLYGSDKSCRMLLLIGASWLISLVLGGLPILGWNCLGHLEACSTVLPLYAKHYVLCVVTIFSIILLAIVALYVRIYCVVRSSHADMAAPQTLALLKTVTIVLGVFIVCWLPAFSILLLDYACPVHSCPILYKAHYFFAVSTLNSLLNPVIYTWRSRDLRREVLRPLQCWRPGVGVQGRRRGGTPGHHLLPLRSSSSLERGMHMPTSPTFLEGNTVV", "test": "Dose Response Cell Based Assay for Antagonists of the S1P2 Receptor. [Related pubchem assays: 856, 736 ]", "assay_type": "functional"}, "[2]": {"test": "growth inhibition of yeast DHODH-expressing 3D7 parasites – SYBR Green, dry powder samples, dose response (AID 1159570);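 further: parasite growth measured after 72 hours of compound exposure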", "assay_type": "functional, cell-based"}, "[3]": {"test": "toxicity to human HepG2 hepatoma cells – cell-based, plate reader, dry powder samples, cytotoxicity control, dose response (AID 1159569);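 further: inhibitor potency with signal falling toward the positive control level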", "assay_type": "functional"}, "[4]": {"test": "P. falciparum Dd2 growth inhibitors, dose response, SYBR Green, cherry-picked samples (AID 1159567)", "assay_type": "functional, cell-based"}, "[5]": {"test": "Dd2 malaria parasite growth inhibition potency – SYBR Green, dry powder samples, dose response (AID 1159566);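 further: potency for growth inhibition with lower SYBR green DNA signal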", "assay_type": "functional, cell-based"}, "[6]": {"test": "toxicity to human hepatoma HepG2 cells – cell-based, cherry-picked samples, cytotoxicity control, dose response (AID 1159577)", "assay_type": "functional"}, "[7]": {"test": "growth inhibition of PfATP4-mutant resistant parasites – NITD609-resistant line, SYBR Green, dry powder, dose response (AID 1159571);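 further: parasites synchronized at ring stage by sorbitol before testing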", "assay_type": "functional, cell-based"}, "[8]": {"test": "M. tuberculosis H37Rv growth inhibitors, H37Rv strain (AID 1626)", "assay_type": "functional"}, "Ephrin type-A receptor 4": {"biological_target": "Ephrin type-A receptor 4 (Mus musculus, UniProt Q03137)", "sequence (Q03137 whole entry)": "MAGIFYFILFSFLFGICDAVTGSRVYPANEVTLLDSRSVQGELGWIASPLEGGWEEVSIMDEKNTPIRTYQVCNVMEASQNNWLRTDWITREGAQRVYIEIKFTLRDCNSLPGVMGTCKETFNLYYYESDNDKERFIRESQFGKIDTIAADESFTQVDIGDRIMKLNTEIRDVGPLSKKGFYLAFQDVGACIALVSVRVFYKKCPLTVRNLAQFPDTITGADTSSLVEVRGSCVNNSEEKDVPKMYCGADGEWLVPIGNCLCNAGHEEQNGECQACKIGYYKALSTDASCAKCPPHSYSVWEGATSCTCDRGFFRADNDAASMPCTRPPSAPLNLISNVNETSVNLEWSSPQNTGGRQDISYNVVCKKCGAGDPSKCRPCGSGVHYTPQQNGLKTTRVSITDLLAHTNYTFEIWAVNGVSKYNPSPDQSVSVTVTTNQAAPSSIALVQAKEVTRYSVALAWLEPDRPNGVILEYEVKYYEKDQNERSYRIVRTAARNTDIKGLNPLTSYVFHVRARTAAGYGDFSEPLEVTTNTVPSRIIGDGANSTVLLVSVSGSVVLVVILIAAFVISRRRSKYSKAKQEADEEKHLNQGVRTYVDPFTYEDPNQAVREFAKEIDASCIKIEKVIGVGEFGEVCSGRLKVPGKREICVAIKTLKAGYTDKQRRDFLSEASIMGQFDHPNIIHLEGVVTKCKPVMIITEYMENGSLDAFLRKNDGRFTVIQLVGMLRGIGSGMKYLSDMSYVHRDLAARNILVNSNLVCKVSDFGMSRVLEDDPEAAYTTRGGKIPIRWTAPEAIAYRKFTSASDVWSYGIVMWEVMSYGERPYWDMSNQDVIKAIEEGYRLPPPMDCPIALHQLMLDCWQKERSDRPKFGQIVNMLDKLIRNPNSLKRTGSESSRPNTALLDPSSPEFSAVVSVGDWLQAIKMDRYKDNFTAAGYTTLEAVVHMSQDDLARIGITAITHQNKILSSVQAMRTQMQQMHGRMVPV", "test": "EphA4 ligand-binding antagonists – biochemical, colorimetric, mouse EphA4, primary screen (AID 689)", "assay_type": "functional"}, "[9]": {"biological_target": "T2, Aryl hydrocarbon receptor (Homo sapiens, UniProt P35869)", "T2 sequence (P35869 whole entry)": "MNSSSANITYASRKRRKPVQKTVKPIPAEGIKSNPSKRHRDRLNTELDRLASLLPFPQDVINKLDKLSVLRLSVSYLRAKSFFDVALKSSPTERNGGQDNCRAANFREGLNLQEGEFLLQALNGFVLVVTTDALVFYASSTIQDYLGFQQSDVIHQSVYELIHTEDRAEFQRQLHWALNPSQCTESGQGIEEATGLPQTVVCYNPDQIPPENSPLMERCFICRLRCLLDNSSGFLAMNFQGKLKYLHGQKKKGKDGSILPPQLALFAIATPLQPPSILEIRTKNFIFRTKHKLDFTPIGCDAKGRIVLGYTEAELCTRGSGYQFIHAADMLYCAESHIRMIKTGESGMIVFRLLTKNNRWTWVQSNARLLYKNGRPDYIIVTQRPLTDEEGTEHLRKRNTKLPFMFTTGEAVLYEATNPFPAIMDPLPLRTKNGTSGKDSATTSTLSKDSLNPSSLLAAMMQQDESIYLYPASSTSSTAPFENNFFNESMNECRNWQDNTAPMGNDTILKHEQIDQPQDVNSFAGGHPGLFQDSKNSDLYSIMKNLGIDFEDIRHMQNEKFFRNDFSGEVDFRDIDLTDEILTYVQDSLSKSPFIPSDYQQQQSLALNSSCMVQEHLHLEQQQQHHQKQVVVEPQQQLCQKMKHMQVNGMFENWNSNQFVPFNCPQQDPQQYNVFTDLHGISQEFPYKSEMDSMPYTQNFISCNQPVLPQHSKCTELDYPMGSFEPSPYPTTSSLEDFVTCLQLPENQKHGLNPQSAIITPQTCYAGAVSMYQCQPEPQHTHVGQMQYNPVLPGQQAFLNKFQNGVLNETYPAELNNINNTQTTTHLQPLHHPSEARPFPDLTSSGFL", "test": "Luminescence-based cell-based high throughput dose response assay for activators of the Aryl Hydrocarbon Receptor (AHR). [Related pubchem assays: 2796 (Primary screen (AHR activators in singlicate)), 2845 (Confirmation screen (AHR activators in triplicate)), 434939 (Counterscreen (PXR activators in triplicate)), 2804 (Summary (AHR activators))]", "assay_type": "ADME"}, "[10]": {"test": "reduced cellular PGC1a acetyl-lysine signal – cell-based, cherry-picked samples, dose response (AID 720514);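 further: potency may reflect raised or lowered acetylation signal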", "assay_type": "functional"}, "[11]": {"biological_target": "T1, Sphingosine 1-phosphate receptor 2", "test": "Dose Response Cell Based Assay for Agonists of the S1P2 Receptor. [Related pubchem assays: 729, 736, 843 ]", "assay_type": "functional"}, "[12]": {"biological_target": "FAD-linked sulfhydryl oxidase ALR (Homo sapiens, UniProt P55789)", "sequence (P55789 whole entry)": "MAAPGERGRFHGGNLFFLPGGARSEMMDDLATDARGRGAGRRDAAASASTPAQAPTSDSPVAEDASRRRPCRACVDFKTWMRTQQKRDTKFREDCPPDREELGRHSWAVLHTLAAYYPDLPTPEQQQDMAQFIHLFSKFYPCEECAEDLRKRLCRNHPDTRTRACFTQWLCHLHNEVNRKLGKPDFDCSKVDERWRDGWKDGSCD", "test": "ALR-catalysed DTT oxidation blockers – biochemical, H2O2 detection, luminescence, cherry-pick, dose response (AID 493248)"}, "[13]": {"test": "Trypanosoma cruzi growth suppression in host cells – NIH3T3 host cells, beta-gal luminescence, confirmation (AID 2044);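 further: luminescent beta-galactosidase reporter signal from transgenic T. cruzi replicating inside host cells; inhibitors lower the luminescence signal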", "assay_type": "functional, cell-based"}, "[14]": {"test": "NIH3T3 cell viability loss – ATP luminescence, mouse fibroblasts, counter-screen, dose response (AID 2010);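 further: cells exposed to compound for about 90 hours before reading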", "assay_type": "functional, cell-based"}, "Fatty acid synthase [15]": {"biological_target": "T3, Fatty acid synthase (Homo sapiens, UniProt P49327)", "T3 sequence (P49327 whole entry)": "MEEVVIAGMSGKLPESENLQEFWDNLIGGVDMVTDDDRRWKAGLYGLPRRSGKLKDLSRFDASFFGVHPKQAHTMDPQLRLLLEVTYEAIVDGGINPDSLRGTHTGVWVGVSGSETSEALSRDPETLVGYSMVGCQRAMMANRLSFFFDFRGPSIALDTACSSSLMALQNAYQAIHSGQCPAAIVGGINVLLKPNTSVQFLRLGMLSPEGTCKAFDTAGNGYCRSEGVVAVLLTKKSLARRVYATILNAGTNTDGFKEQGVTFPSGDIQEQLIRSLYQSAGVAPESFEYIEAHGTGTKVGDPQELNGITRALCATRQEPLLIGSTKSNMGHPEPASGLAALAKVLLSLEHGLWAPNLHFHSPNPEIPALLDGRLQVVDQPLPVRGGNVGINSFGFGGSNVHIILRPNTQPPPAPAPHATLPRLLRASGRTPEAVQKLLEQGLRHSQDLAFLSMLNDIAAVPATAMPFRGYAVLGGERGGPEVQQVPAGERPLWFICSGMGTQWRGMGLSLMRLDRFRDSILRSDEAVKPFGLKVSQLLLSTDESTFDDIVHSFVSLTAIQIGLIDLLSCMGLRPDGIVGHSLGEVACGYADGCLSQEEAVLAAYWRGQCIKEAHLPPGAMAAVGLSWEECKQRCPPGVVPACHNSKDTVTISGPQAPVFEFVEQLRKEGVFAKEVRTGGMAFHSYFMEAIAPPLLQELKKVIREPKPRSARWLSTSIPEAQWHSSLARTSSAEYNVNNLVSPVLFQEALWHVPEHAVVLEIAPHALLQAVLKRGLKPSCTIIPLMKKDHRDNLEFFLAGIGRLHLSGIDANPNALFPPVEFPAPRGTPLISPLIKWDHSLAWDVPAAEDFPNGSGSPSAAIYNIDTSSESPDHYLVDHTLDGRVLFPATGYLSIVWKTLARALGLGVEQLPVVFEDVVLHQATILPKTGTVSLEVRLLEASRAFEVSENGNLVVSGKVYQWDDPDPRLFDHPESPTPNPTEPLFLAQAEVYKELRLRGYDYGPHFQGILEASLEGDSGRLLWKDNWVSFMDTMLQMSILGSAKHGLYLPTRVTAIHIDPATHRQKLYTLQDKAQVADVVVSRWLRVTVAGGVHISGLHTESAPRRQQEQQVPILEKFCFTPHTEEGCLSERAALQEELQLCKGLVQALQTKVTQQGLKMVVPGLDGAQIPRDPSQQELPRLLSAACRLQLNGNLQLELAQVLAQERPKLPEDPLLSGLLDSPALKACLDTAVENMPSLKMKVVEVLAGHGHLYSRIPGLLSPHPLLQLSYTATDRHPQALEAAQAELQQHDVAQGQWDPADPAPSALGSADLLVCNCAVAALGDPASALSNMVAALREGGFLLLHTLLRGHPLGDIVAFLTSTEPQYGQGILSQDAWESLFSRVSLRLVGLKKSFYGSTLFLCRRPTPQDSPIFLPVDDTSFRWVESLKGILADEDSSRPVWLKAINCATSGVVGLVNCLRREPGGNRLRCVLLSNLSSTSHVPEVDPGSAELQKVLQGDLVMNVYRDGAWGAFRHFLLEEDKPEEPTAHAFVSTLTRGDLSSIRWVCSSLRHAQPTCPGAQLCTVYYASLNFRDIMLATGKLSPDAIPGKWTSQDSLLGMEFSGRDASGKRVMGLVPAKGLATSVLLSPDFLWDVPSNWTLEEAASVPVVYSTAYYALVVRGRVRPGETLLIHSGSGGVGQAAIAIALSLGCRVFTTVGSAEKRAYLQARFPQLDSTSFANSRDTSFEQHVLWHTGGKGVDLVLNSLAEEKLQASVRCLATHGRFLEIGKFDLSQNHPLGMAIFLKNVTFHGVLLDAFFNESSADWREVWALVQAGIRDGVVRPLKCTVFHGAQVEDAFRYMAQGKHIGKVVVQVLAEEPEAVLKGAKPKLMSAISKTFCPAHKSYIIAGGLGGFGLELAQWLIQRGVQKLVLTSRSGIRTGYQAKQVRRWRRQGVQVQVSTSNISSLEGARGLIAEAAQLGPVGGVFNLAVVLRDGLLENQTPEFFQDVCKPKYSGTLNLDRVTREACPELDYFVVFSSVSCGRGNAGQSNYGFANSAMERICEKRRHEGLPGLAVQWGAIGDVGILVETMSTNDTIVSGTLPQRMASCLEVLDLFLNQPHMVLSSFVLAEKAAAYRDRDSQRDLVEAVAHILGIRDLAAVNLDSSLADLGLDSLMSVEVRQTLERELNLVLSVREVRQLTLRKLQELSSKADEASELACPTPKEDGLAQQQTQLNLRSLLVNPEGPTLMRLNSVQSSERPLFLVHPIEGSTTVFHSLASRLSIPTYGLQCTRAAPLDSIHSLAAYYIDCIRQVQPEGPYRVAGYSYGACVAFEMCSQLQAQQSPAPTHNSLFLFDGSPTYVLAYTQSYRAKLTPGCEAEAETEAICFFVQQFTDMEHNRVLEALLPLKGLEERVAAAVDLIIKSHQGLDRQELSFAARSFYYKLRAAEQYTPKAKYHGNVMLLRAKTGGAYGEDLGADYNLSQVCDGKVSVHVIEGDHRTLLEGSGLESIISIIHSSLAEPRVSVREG", "test": "inhibition of human FAS-TE enzyme activity – biochemical, endpoint fluorescence intensity, uHTS hits, dose response (AID 624327);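 further: fluorescence from hydrolysis of an O-methyl fluorescein acyl ester substrate by the enzyme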", "assay_type": "functional"}, "Fatty acid synthase [16]": {"biological_target": "T3, Fatty acid synthase", "test": "inhibition of human FAS-TE enzyme activity – biochemical, kinetic fluorescence intensity, dose response (AID 624326);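 further: rate of fluorescence rise from hydrolysis of a fluorogenic O-methyl fluorescein ester substrate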", "assay_type": "functional"}}, "note": "Calls of active or inactive are those of the source.", "data": [{"smiles": "Cc1ccc2[nH]c3c(N4CCCCCC4)ncnc3c2c1", "values": [{"measurement": "IC50", "setting": "[1]", "result": "3.44 µM (active)"}]}, {"smiles": "COc1cc(CN2C[C@@H]3N[C@H](C2)[C@@H]3c2ccc(-c3ccncc3)cc2)cc(OC)c1", "values": [{"measurement": "AC50", "setting": "[2]", "result": "2.53 µM (active)"}, {"measurement": "AC50", "setting": "[3]", "result": "18.7 µM (active)"}, {"measurement": "AC50", "setting": "[4]", "result": "2.11 µM (active)"}, {"measurement": "AC50", "setting": "[5]", "result": "1.92 µM (active)"}, {"measurement": "AC50", "setting": "[6]", "result": "> 39 µM (inactive)"}, {"measurement": "AC50", "setting": "[7]", "result": "1.9 µM (active)"}]}, {"smiles": "O/C(=C\\c1nc2ccccc2nc1/C=C(\\O)c1ccccc1)c1ccccc1", "values": [{"measurement": "IC50", "setting": "[8]", "result": "> 100 µM (active)"}]}, {"smiles": "COc1ccc(/C=c2\\sc3nc(-c4ccccc4)c(-c4ccccc4)n3c2=O)cc1OC", "values": [{"measurement": "IC50", "setting": "Ephrin type-A receptor 4", "result": "8.12 µM (active)"}]}, {"smiles": "Cc1csc(NC(=O)CSc2ccc3nnc(-c4ccncc4)n3n2)n1", "values": [{"measurement": "EC50", "setting": "[9]", "result": "12 µM (not active)"}]}, {"smiles": "COc1ccc(F)cc1CN1CCN(CC(=O)N2CCc3ccccc32)CC1", "values": [{"measurement": "AC50", "setting": "[10]", "result": "24.9 µM (active)"}]}, {"smiles": "Cc1cc(C)c(S(=O)(=O)Nc2ccc(O)cc2)cc1C", "values": [{"measurement": "EC50", "setting": "[11]", "result": "> 50 µM (not active)"}, {"measurement": "AC50", "setting": "[12]", "result": "0.926 µM (active)"}]}, {"smiles": "C[C@H](CO)N1C[C@H](C)[C@@H](CN(C)C(=O)C2CCCCC2)Oc2cc(C#Cc3ccncc3)ccc2S1(=O)=O", "values": [{"measurement": "AC50", "setting": "[10]", "result": "9.86 µM (active)"}]}, {"smiles": "CN(CCO)c1cc(NCCCN2CCC(Cc3ccccc3)CC2)c2nonc2c1[N+](=O)[O-]", "values": [{"measurement": "EC50", "setting": "[13]", "result": "< 0.1 µM (active)"}, {"measurement": "EC50", "setting": "[14]", "result": "> 60 µM (not active)"}, {"measurement": "IC50", "setting": "Fatty acid synthase [15]", "result": "12.2 µM (active)"}, {"measurement": "IC50", "setting": "Fatty acid synthase [16]", "result": "6.52 µM (active)"}, {"measurement": "EC50", "setting": "cells", "result": "0.215 µM (active)"}]}, {"smiles": "CCCc1nn(-c2cc(Cl)ccc2OC)c2c1C(=O)CCC2", "values": [{"measurement": "EC50", "setting": "[11]", "result": "> 50 µM (not active)"}]}]}
